Experimental data as given in patent publication US20090099195A1 (ASTRAZENECA AB, priority 2007, published 2009).

target: T1, hP2X3 (human Purinergic P2X receptors subtype 3), clone B (Homo sapiens, UniProt P56373); test: hP2X3 FLIPR calcium (Fluo-4) antagonist assay, clone B; conditions: Human P2X3 FLIPR Clone B IC50 (nM), RLE cells expressing hP2X3 clone B (NM_002559); agonist 500 nM α,β-methylene-ATP
T1 sequence (P56373 1-397): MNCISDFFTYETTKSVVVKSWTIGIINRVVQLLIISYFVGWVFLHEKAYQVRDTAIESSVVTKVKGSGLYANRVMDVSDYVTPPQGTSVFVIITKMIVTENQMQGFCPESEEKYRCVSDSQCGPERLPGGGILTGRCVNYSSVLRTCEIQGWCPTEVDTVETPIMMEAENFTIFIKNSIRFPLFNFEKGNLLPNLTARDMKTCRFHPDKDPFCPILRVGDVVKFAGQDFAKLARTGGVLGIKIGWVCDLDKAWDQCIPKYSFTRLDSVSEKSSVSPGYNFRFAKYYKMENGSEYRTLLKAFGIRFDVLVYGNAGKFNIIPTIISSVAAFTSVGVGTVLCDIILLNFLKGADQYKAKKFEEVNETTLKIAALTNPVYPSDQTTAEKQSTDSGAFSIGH

Row | Structure (SMILES) | IC50 [nM]
1 | CC(=O)N1CCN(c2nc3c(c(N4CCCC4c4ccc(Cl)cc4)n2)CN(C(C)C)C3=O)CC1 (centres unmarked) [Example 52, 2-(4-acetylpiperazin-1-yl)-4-[2-(4-chlorophenyl)pyrrolidin-1-yl]-6-isopropyl-5,6-dihydro-7H-pyrrolo[3,4-d]pyrimidin-7-one] | 720
2 | CC(=O)N1CCN(c2nc(NCc3cc(-c4ccccc4)n(C)n3)c3c(n2)C(=O)N(C(C)C)C3)CC1 [Example 153, 4-(4-acetylpiperazin-1-yl)-2-[(1-methyl-5-phenyl-pyrazol-3-yl)methylamino]-8-propan-2-yl-3,5,8-triazabicyclo[4.3.0]nona-1,3,5-trien-7-one] | 120
3 | CC(=O)N1CCN(c2nc3c(c(N(Cc4ccc(F)cc4)C4CCCC4)n2)CN(C(C)C)C3=O)CC1 [Example 4, 2-(4-acetylpiperazin-1-yl)-4-[cyclopentyl(4-fluorobenzyl)amino]-6-isopropyl-5,6-dihydro-7H-pyrrolo[3,4-d]pyrimidin-7-one] | 800
4 | O=C1c2nc(N3CCOCC3)nc(NC(c3ccccc3)c3ccccc3)c2CN1C1CCCC1 [Example 75, 4-(Benzhydryl-amino)-6-cyclopentyl-2-morpholin-4-yl-5,6-dihydro-pyrrolo[3,4-d]pyrimidin-7-one] | > 30000
5 | CC(=O)N1CCN(c2nc(NCc3nc(C4CCCC4)no3)c3c(n2)C(=O)N(C(C)C)C3)CC1 [Example 276, 4-(4-acetylpiperazin-1-yl)-2-[(3-cyclopentyl-1,2,4-oxadiazol-5-yl)methylamino]-8-propan-2-yl-3,5,8-triazabicyclo[4.3.0]nona-1,3,5-trien-7-one] | 590
6 | CC(C)N1Cc2c(NC(C)(C)Cc3ccc(Cl)cc3)nc(N3CCN(C(=O)C4CC4)CC3)nc2C1=O [Example 126, 4-{[2-(4-chlorophenyl)-1,1-dimethylethyl]amino}-2-[4-(cyclopropylcarbonyl)piperazin-1-yl]-6-isopropyl-5,6-dihydro-7H-pyrrolo[3,4-d]pyrimidin-7-one] | 2300
7 | CCOc1ccc(C(C)N(C)c2nc(N3CCN(C(C)=O)CC3)nc3c2CN(C(C)C)C3=O)cc1 (centres unmarked) [Example 157, 2-(4-acetylpiperazin-1-yl)-4-((1-(4-ethoxyphenyl)ethyl)(methyl)amino)-6-isopropyl-5H-pyrrolo[3,4-d]pyrimidin-7(6H)-one] | 390
8 | CCOc1cc([C@@H](C)Nc2nc(N3CCN(C(C)=O)CC3)nc3c2CN(C(C)C)C3=O)ccc1C [Example 174, (R)-2-(4-acetylpiperazin-1-yl)-4-(1-(3-ethoxy-4-methylphenyl)ethylamino)-6-isopropyl-5H-pyrrolo[3,4-d]pyrimidin-7(6H)-one] | 600
9 | CC(=O)N1CCN(c2nc(NC(C)c3ccc(CC(C)C)cc3)c3c(n2)C(=O)N(C(C)C)C3)CC1 (centres unmarked) [Example 6, 2-(4-acetylpiperazin-1-yl)-4-{[1-(4-isobutylphenyl)ethyl]amino}-6-isopropyl-5,6-dihydro-7H-pyrrolo[3,4-d]pyrimidin-7-one] | 160
10 | CCOC(=O)C(CNc1nc(N2CCN(C(C)=O)CC2)nc2c1CN(C(C)C)C2=O)c1ccccc1 (centres unmarked) [Example 2, ethyl 3-{[2-(4-acetylpiperazin-1-yl)-6-isopropyl-7-oxo-6,7-dihydro-5H-pyrrolo[3,4-d]pyrimidin-4-yl]amino}-2-phenylpropanoate] | 1900
11 | CCCN1Cc2c(NC(c3ccccc3)c3ccccc3)nc(N3CCOCC3)nc2C1=O [Example 110, 4-[(diphenylmethyl)amino]-2-morpholin-4-yl-6-propyl-5,6-dihydro-7H-pyrrolo[3,4-d]pyrimidin-7-one] | 3300
12 | CCCc1ccc(C(C)Nc2nc(N3CCN(C(C)=O)CC3)nc3c2CN(C(C)C)C3=O)cc1 (centres unmarked) [Example 29, 2-(4-acetylpiperazin-1-yl)-6-isopropyl-4-{[1-(4-propylphenyl)ethyl]amino}-5,6-dihydro-7H-pyrrolo[3,4-d]pyrimidin-7-one] | 160
13 | CC(C)N1Cc2c(Nc3ccc(Cc4ccccc4)cc3)nc(N3CCOCC3)nc2C1=O [Example 37, 4-[(4-benzylphenyl)amino]-6-isopropyl-2-morpholin-4-yl-5,6-dihydro-7H-pyrrolo[3,4-d]pyrimidin-7-one] | > 30000
14 | CCN1CCN(c2nc(NC(c3ccccc3)c3ccc(C)cc3)c3c(n2)C(=O)N(C(C)C)C3)CC1 (centres unmarked) [Example 101, 2-(4-Ethyl-piperazin-1-yl)-6-isopropyl-4-[(phenyl-p-tolyl-methyl)-amino]-5,6-dihydro-pyrrolo[3,4-d]-pyrimidin-7-one] | 150
15 | CC(=O)N1CCN(c2nc(NC(C)C3COc4ccccc4O3)c3c(n2)C(=O)N(C(C)C)C3)CC1 (single isomer, unassigned) [Example 178, 2-(4-acetylpiperazin-1-yl)-4-(1-(2,3-dihydrobenzo[b][1,4]dioxin-2-yl)ethylamino)-6-isopropyl-5H-pyrrolo[3,4-d]pyrimidin-7(6H)-one] | 970
16 | CC(C)N1Cc2c(NC(c3ccc(F)cc3)c3ccc(F)cc3)nc(N(C)CCN(C)C)nc2C1=O [Example 24, 4-{[bis(4-fluorophenyl)methyl]amino}-2-[[2-(dimethylamino)ethyl](methyl)amino]-6-isopropyl-5,6-dihydro-7H-pyrrolo[3,4-d]pyrimidin-7-one] | 190
17 | CC(=O)N1CCN(c2nc3c(c(N(Cc4ccccc4)Cc4ccc(Cl)cc4)n2)CN(C(C)C)C3=O)CC1 [Example 58, 2-(4-acetylpiperazin-1-yl)-4-[benzyl(4-chlorobenzyl)amino]-6-isopropyl-5,6-dihydro-7H-pyrrolo[3,4-d]pyrimidin-7-one] | 270
18 | CC(=O)NC1CCN(c2nc(NCc3cnc4ccccc4c3)c3c(n2)C(=O)N(C(C)C)C3)C1 (centres unmarked) [Example 207, N-(1-(6-isopropyl-7-oxo-4-(quinolin-3-ylmethylamino)-6,7-dihydro-5H-pyrrolo[3,4-d]pyrimidin-2-yl)pyrrolidin-3-yl)acetamide] | 7100
19 | CC(=O)N1CCN(c2nc(NC3CCCc4ccccc43)c3c(n2)C(=O)N(C(C)C)C3)CC1 (centres unmarked) [Example 1, 2-(4-acetylpiperazin-1-yl)-6-isopropyl-4-(1,2,3,4-tetrahydronaphthalen-1-ylamino)-5,6-dihydro-7H-pyrrolo[3,4-d]pyrimidin-7-one] | 4800
20 | CC(C)N1Cc2c(NCc3cnc4ccccc4c3)nc(NC3CN4CCC3CC4)nc2C1=O (centres unmarked) [Example 214, 6-isopropyl-4-(3-quinolylmethylamino)-2-(quinuclidin-3-ylamino)-5H-pyrrolo[3,4-d]pyrimidin-7-one] | 2300
21 | CC(C)N1Cc2c(NC(c3ccccc3)c3ccccc3)nc(NCCO)nc2C1=O [Example 100] | 1100
22 | CC(=O)N1CCN(c2nc(NCc3cc4ccccc4nc3C)c3c(n2)C(=O)N(C(C)C)C3)CC1 [Example 241, 2-(4-acetylpiperazin-1-yl)-6-isopropyl-4-((2-methylquinolin-3-yl)methylamino)-5H-pyrrolo[3,4-d]pyrimidin-7(6H)-one] | 68
23 | CC(C)N1Cc2c(NC3c4cccnc4CCc4c(F)cccc43)nc(NCCN(C)C)nc2C1=O (centres unmarked) [Example 21, 2-{[2-(dimethylamino)ethyl]amino}-4-[(9-fluoro-10,11-dihydro-5H-benzo[4,5]cyclohepta[1,2-b]pyridin-5-yl)amino]-6-isopropyl-5,6-dihydro-7H-pyrrolo[3,4-d]pyrimidin-7-one] | 140
24 | CCN1CCN(c2nc(NCC(c3ccccc3)c3ccccc3)c3c(n2)C(=O)N(C(C)C)C3)CC1 [Example 107, 4-(2,2-Diphenyl-ethylamino)-2-(4-ethyl-piperazin-1-yl)-6-isopropyl-5,6-dihydro-pyrrolo[3,4-d]pyrimidin-7-one] | 2300
25 | CC(=O)N1CCN(c2nc(NC(c3ccc(Cl)cc3)C3CC3)c3c(n2)C(=O)N(C(C)C)C3)CC1 (centres unmarked) [Example 27, 2-(4-acetylpiperazin-1-yl)-4-{[(4-chlorophenyl)(cyclopropyl)methyl]amino}-6-isopropyl-5,6-dihydro-7H-pyrrolo[3,4-d]pyrimidin-7-one] | 140
26 | CC(=O)N1CCN(c2nc(NC(C)c3ccc(C(C)(C)C#N)c(F)c3)c3c(n2)C(=O)N(C(C)C)C3)CC1 (centres unmarked) [Example 163, 2-(4-(1-(2-(4-acetylpiperazin-1-yl)-6-isopropyl-7-oxo-6,7-dihydro-5H-pyrrolo[3,4-d]pyrimidin-4-ylamino)ethyl)-2-fluorophenyl)-2-methylpropanenitrile] | 1700
27 | CC(=O)N1CCCN(c2nc(NC(C)(C)Cc3ccc(Cl)cc3)c3c(n2)C(=O)N(C(C)C)C3)CC1 [Example 65, 2-(4-acetyl-1,4-diazepan-1-yl)-4-{[2-(4-chlorophenyl)-1,1-dimethylethyl]amino}-6-isopropyl-5,6-dihydro-7H-pyrrolo[3,4-d]pyrimidin-7-one] | 420
28 | CCN1CCN(c2nc(NC3c4cccnc4CCc4c(F)cccc43)c3c(n2)C(=O)N(C(C)C)C3)CC1 (centres unmarked) [Example 120, 2-(4-ethylpiperazin-1-yl)-4-[(9-fluoro-10,11-dihydro-5H-benzo[4,5]cyclohepta[1,2-b]pyridin-5-yl)amino]-6-isopropyl-5,6-dihydro-7H-pyrrolo[3,4-d]pyrimidin-7-one] | 1400
29 | COCCNc1nc(NC(c2ccccc2)c2ccc(C)cc2)c2c(n1)C(=O)N(C(C)C)C2 (centres unmarked) [Example 98, 6-isopropyl-2-(2-methoxy-ethylamino)-4-[(phenyl-p-tolyl-methyl)-amino]-5,6-dihydro-pyrrolo[3,4-d]-pyrimidin-7-one] | 210
